{
  "source": "paper PMC9499987",
  "about": "(Antiviral Research, 2022)",
  "key": {"SARS-CoV-2 3CL^pro [1]": {"target": "T1, SARS-CoV-2 3CL^pro (Severe acute respiratory syndrome coronavirus 2, UniProt P0DTD1)", "assay": "Microscale thermophoresis", "type": "binding"}, "HCoV-OC43": {"test_system": "HCoV-OC43", "assay": "Anti-coronavirus activity assay", "type": "cell-based", "conditions": "HCT-8 cells, MOI 0.1, serial dilutions up to 50 μM"}, "SARS-CoV-2 3CL^pro [2]": {"target": "T1, SARS-CoV-2 3CL^pro", "assay": "cell-based", "conditions": "EC50 against SARS-CoV-2 3CLpro (BRET ratio)"}},
  "data": [
    {"molecule": "C=C(C)[C@@H]1CC[C@]2(C(=O)O)CC[C@]3(C)[C@H](CC[C@@H]4[C@@]5(C)CC[C@H](OC(=O)CC(C)(C)C(=O)O)C(C)(C)[C@@H]5CC[C@]43C)[C@@H]12", "note": "[bevirimat, Bevirimat]", "values": [
      {"measurement": "Kd", "setting": "SARS-CoV-2 3CL^pro [1]; Kd(M), MST, target 100 nM, ligand 0.0153 μM–500 μM, MST power 40%", "value": "1.05e-05", "unit": "M"},
      {"measurement": "Kd", "setting": "SARS-CoV-2 3CL^pro [1]; Kd, MST, labeled 3CLpro 100 nM, 40% MST power", "value": "1.05e-05", "unit": "M"},
      {"measurement": "inhibitory effect on the replication of HCoV-OC43", "setting": "HCoV-OC43", "value": "did not significantly inhibit"}
    ]},
    {"molecule": "C=C[C@@H]1C[C@]1(NC(=O)[C@@H]1C[C@@H]2CN1C(=O)[C@H](C(C)(C)C)NC(=O)O[C@@H]1C[C@H]1CCCCCc1nc3ccc(OC)cc3nc1O2)C(=O)NS(=O)(=O)C1CC1.O", "note": "[grazoprevir, Grazoprevir]", "values": [
      {"measurement": "inhibitory effect on the replication of HCoV-OC43", "setting": "HCoV-OC43", "value": "did not significantly inhibit"}
    ]},
    {"molecule": "Cc1c(O)cccc1C(=O)N[C@@H](CSc1ccccc1)[C@H](O)CN1C[C@H]2CCCC[C@H]2C[C@H]1C(=O)NC(C)(C)C", "note": "[nelfinavir, Nelfinavir]", "values": [
      {"measurement": "Kd", "setting": "SARS-CoV-2 3CL^pro [1]; Kd", "value": "9.16e-05", "unit": "M"},
      {"measurement": "Kd", "setting": "SARS-CoV-2 3CL^pro [1]; Kd(M)", "value": "9.16e-05", "unit": "M"}
    ]},
    {"molecule": "CC(C)(C)NC(=O)[C@@H]1C[C@@H]2CCCC[C@@H]2CN1C[C@@H](O)[C@H](Cc1ccccc1)NC(=O)[C@H](CC(N)=O)NC(=O)c1ccc2ccccc2n1", "note": "[saquinavir]", "values": [
      {"measurement": "EC50", "setting": "SARS-CoV-2 3CL^pro [2]", "value": 40, "unit": "µM"}
    ]}
  ]
}
